# Source: patent publication US5756473A, “6-O-methyl erythromycin D and process for making” (Abbott Laboratories, priority 1995, dated 1998)
# Like-named read-outs stand apart in the source and are kept apart here.
# How the values were obtained:
# Staphylococcus aureus = test: In vitro antibacterial activity, agar dilution MIC (Staphylococcus aureus); format: cell-based; conditions: BHI agar, 35-37 °C, 20 to 24 hours
# Method: (§1) The 6-O-methyl erythromycin D compound of the present invention was assayed in vitro for antibacterial activity as follows: Twelve petri dishes containing successive aqueous dilutions of the test compound mixed with 10 mL of sterilized Brain Heart Infusion (BHI) agar (Difco 0418-01-5) were prepared. Each plate was inoculated with 1:100 (or 1:10 for slow-growing strains, such as Micrococcus and Streptococcus) dilutions of up to 32 different microorganisms, using a Steers replicator block. The inoculated plates were incubated at 35°-37° C. for 20 to 24 hours. In addition, a control plate, using BHI agar containing no test compound, was prepared and incubated at the beginning and end of each test.
# (§2) An additional plate containing a compound having known susceptibility patterns for the organisms being tested and belonging to the same antibiotic class as the test compound was also prepared and incubated as a further control, as well as to provide test-to-test comparability. Erythromycin A was used for this purpose.
# (§3) After incubation, each disk was read. The minimum inhibitory concentration (MIC) was defined as the lowest concentration of drug yielding no growth, a slight haze, or sparsely isolated colonies on the inoculum spot as compared to the growth control.
# [1] = test system: Staphylococcus epidermidis; test: In vitro antibacterial activity, agar dilution MIC (Staphylococcus epidermidis); format: cell-based
# Method: as §1, §2, §3
# Enterococcus faecium = test: In vitro antibacterial activity, agar dilution MIC (Enterococcus faecium); format: cell-based; conditions: ATCC8043, strain ATCC 8043, BHI agar, 35-37 °C, 20 to 24 hours
# Streptococcus bovis = test: In vitro antibacterial activity, agar dilution MIC (Streptococcus bovis); format: cell-based; conditions: Streptococcus equinus
# Method: as §1, §2, §3
# Streptococcus agalactiae = test: In vitro antibacterial activity, agar dilution MIC (Streptococcus agalactiae); format: cell-based
# Method: as §1, §2, §3
# Streptococcus pyogenes = test: In vitro antibacterial activity, agar dilution MIC (Streptococcus pyogenes); format: cell-based; conditions: 35-37 °C, 20 to 24 hours
# Method: as §1, §2, §3
# Micrococcus luteus = test: In vitro antibacterial activity, agar dilution MIC (Micrococcus luteus); format: cell-based
# Method: as §1, §2, §3
# Escherichia coli = test: In vitro antibacterial activity, agar dilution MIC (Escherichia coli); format: cell-based; conditions: 35-37 °C, 20 to 24 hours
# Enterobacter aerogenes = test: In vitro antibacterial activity, agar dilution MIC (Enterobacter aerogenes); format: cell-based; conditions: Klebsiella aerogenes, ATCC13048; strain ATCC 13048; BHI agar, 35-37 °C, 20 to 24 hours
# [2] = test system: Acinetobacter calcoaceticus; test: microbe, parasite or virus in culture
# Method: as §1, §2, §3
# Klebsiella pneumoniae = test: microbe, parasite or virus in culture; conditions: ATCC8045
# Method: as §1, §2, §3
# Providencia stuartii = test: In vitro antibacterial activity, agar dilution MIC (Providencia stuartii); format: cell-based; conditions: strain CMX 640, BHI agar, 35-37 °C, 20 to 24 hours
# Pseudomonas aeruginosa = test: In vitro antibacterial activity, agar dilution MIC (Pseudomonas aeruginosa); format: cell-based; conditions: for MIC: Pseudomonas aeruginosa
# Method: as §1, §2, §3
# Mycobaceterium smegmatis = test: In vitro antibacterial activity, agar dilution MIC (Mycobaceterium smegmatis); format: cell-based
# Method: as §1, §2, §3
# Nocardia asteroides = test: In vitro antibacterial activity, agar dilution MIC (Nocardia asteroides); format: cell-based; conditions: ATCC9970, strain ATCC 9970, BHI agar, 35-37 °C, 20 to 24 hours
# Method: as §1, §2, §3
# Candida albicans = test: microbe, parasite or virus in culture
# Method: as §1, §2, §3
# microorganisms = test: In vitro assay of antibacterial activity (overall conclusion); format: cell-based; conditions: overall conclusion from Table 1
# Method: Erythromycin A was used for this purpose.
# After incubation, each disk was read.
# [3] = Staphylococcus aureus, strain 1775 Cipro R
# [4] = Staphylococcus aureus, strain A5177
# [5] = Staphylococcus aureus, strain A5278
# [6] = strain DC-2, BHI agar, read-out: MIC
# [7] = strain Juhl, BHI agar, read-out: MIC
# [8] = strain KNK 437, BHI agar, read-out: MIC
# [9] = strain SS, BHI agar, read-out: MIC
# [10] = strain 2862, BHI agar, 35-37 °C, 20 to 24 hours
# [11] = strain 5263, BHI agar, 35-37 °C, 20 to 24 hours
# [12] = strain A5007, BHI agar, 35-37 °C, 20 to 24 hours
# [13] = strain K799/WT, BHI agar, 35-37 °C, 20 to 24 hours
smiles,measurement,setting,value
"CC[C@H]1OC(=O)[C@H](C)[C@@H](O[C@H]2C[C@@](C)(OC)[C@@H](O)[C@H](C)O2)[C@H](C)[C@@H](O[C@@H]2O[C@H](C)C[C@H](N(C)C)[C@H]2O)[C@](C)(O)C[C@@H](C)C(=O)[C@H](C)[C@@H](O)[C@]1(C)O [Erythromycin A, reference compound]",MIC,"Staphylococcus aureus; Staphylococcus aureus, ATCC6538P, strain ATCC 6538P",0.2 µg/mL
same,MIC,"Staphylococcus aureus; Staphylococcus aureus, NCTC10649, strain NCTC 10649",0.2 µg/mL
same,MIC,Staphylococcus aureus; [3],> 100 µg/mL
same,MIC,Staphylococcus aureus; [4],1.56 µg/mL
same,MIC,Staphylococcus aureus; [5],> 100 µg/mL
same,MIC,"Staphylococcus aureus; Staphylococcus aureus, strain CMX 553",0.2 µg/mL
same,MIC,"Staphylococcus aureus; Staphylococcus aureus, strain 642a",0.2 µg/mL
same,MIC,[1],0.2 µg/mL
same,MIC,Enterococcus faecium,0.05 µg/mL
same,MIC,Streptococcus bovis,0.02 µg/mL
same,MIC,Streptococcus agalactiae,0.05 µg/mL
same,MIC,"Streptococcus pyogenes; strain 930 const, BHI agar",> 100 µg/mL
same,MIC,"Streptococcus pyogenes; strain 2548 induc, BHI agar",6.2 µg/mL
same,MIC,"Streptococcus pyogenes; strain EES61, BHI agar",0.05 µg/mL
same,MIC,Micrococcus luteus,0.01 µg/mL
same,MIC,Micrococcus luteus; ATCC9341,0.05 µg/mL
same,MIC,Escherichia coli; [6],50 µg/mL
same,MIC,"Escherichia coli; strain H560, BHI agar",2.5 µg/mL
same,MIC,Escherichia coli; [7],50 µg/mL
same,MIC,Escherichia coli; [8],50 µg/mL
same,MIC,Escherichia coli; [9],0.2 µg/mL
same,MIC,Enterobacter aerogenes,100 µg/mL
same,MIC,[2],12.5 µg/mL
same,MIC,Klebsiella pneumoniae,50 µg/mL
same,MIC,Providencia stuartii,> 100 µg/mL
same,MIC,Pseudomonas aeruginosa,> 100 µg/mL
same,MIC,Pseudomonas aeruginosa; [10],> 100 µg/mL
same,MIC,Pseudomonas aeruginosa; [11],> 100 µg/mL
same,MIC,Pseudomonas aeruginosa; [12],> 100 µg/mL
same,MIC,"Pseudomonas aeruginosa; strain K799/61, BHI agar, 35-37 °C, 20 to 24 hours",> 100 µg/mL
same,MIC,Pseudomonas aeruginosa; [13],> 100 µg/mL
same,MIC,Mycobaceterium smegmatis,12.5 µg/mL
same,MIC,Nocardia asteroides,0.05 µg/mL
"CC[C@H]1OC(=O)[C@H](C)[C@@H](O[C@H]2C[C@@](C)(O)[C@@H](O)[C@H](C)O2)[C@H](C)[C@@H](O[C@@H]2O[C@H](C)C[C@H](N(C)C)[C@H]2O)[C@](C)(OC)C[C@@H](C)C(=O)[C@H](C)[C@@H](O)[C@H]1C [Example 3, 6-O-Methylerythromycin D]",MIC,"Staphylococcus aureus; Staphylococcus aureus, ATCC6538P, strain ATCC 6538P, read-out: MIC",0.39 µg/mL
same,MIC,"Staphylococcus aureus; Staphylococcus aureus, NCTC10649, strain NCTC 10649, read-out: MIC",0.39 µg/mL
same,MIC,Staphylococcus aureus; [3],> 100 µg/mL
same,MIC,Staphylococcus aureus; [4],3.1 µg/mL
same,MIC,Staphylococcus aureus; [5],> 100 µg/mL
same,MIC,"Staphylococcus aureus; Staphylococcus aureus, strain 642a, read-out: MIC",0.39 µg/mL
same,MIC,Staphylococcus aureus; strain CMX 553,0.39 µg/mL
same,MIC,"[1]; strain 3519, BHI agar, 35-37 °C, 20 to 24 hours, read-out: MIC",0.39 µg/mL
same,MIC,Enterococcus faecium,0.1 µg/mL
same,MIC,"Streptococcus bovis; strain A5169, BHI agar, 35-37 °C, 20 to 24 hours, read-out: MIC",0.01 µg/mL
same,MIC,"Streptococcus agalactiae; strain 508, BHI agar, 35-37 °C, 20 to 24 hours, read-out: MIC",0.05 µg/mL
same,MIC,"Streptococcus pyogenes; strain 930 const, BHI agar",> 100 µg/mL
same,MIC,"Streptococcus pyogenes; strain 2548 induc, BHI agar",3.1 µg/mL
same,MIC,"Streptococcus pyogenes; strain EES61, BHI agar, read-out: MIC",0.05 µg/mL
same,MIC,Micrococcus luteus,1.56 µg/mL
same,MIC,"Micrococcus luteus; ATCC9341, strain ATCC 9341, BHI agar, 35-37 °C, 20 to 24 hours, read-out: MIC",0.05 µg/mL
same,MIC,Escherichia coli; [6],> 100 µg/mL
same,MIC,"Escherichia coli; strain H560, BHI agar",> 100 µg/mL
same,MIC,Escherichia coli; [7],> 100 µg/mL
same,MIC,Escherichia coli; [8],> 100 µg/mL
same,MIC,Escherichia coli; [9],0.39 µg/mL
same,MIC,Enterobacter aerogenes,> 100 µg/mL
same,MIC,[2],> 100 µg/mL
same,MIC,Candida albicans,> 100 µg/mL
same,MIC,Klebsiella pneumoniae,> 100 µg/mL
same,MIC,Providencia stuartii,> 100 µg/mL
same,MIC,Pseudomonas aeruginosa,1.56 µg/mL
same,antibacterial effectiveness (in words),"Pseudomonas aeruginosa; Pseudomonas aeruginosa K799/61, comparison with Erythromycin A control",significantly more effective
same,MIC,Pseudomonas aeruginosa; [10],> 100 µg/mL
same,MIC,Pseudomonas aeruginosa; [11],> 100 µg/mL
same,MIC,Pseudomonas aeruginosa; [12],> 100 µg/mL
same,MIC,"Pseudomonas aeruginosa; strain BMH10, BHI agar, 35-37 °C, 20 to 24 hours",> 100 µg/mL
same,MIC,Pseudomonas aeruginosa; [13],> 100 µg/mL
same,antibacterial effectiveness (in words),"Mycobaceterium smegmatis; Mycobaceterium smegmatis ATCC 114, comparison with Erythromycin A control",significantly more effective
same,MIC,"Mycobaceterium smegmatis; strain ATCC 114, BHI agar, 35-37 °C, 20 to 24 hours, read-out: MIC",0.78 µg/mL
same,MIC,Nocardia asteroides,0.05 µg/mL
same,antibacterial activity (in words),microorganisms,effective antibacterial agent
